How the values were obtained:
Conditions in all cases: 72 h
[1] = test system: Caco-2; assay: cell viability relative to DMSO; higher = less toxic
[2] = test system: Calu-3; assay: as above
[3] = test system: HepG2; assay: as above
[4] = test system: U2OS; assay: as above
[5] = test system: Vero E6; assay: as above
[6] = test system: Caco-2; assay: relative viability EC50 (midpoint between 100% and the lowest measured viability); higher = less toxic
[7] = test system: Calu-3; assay: as above
[8] = test system: HepG2; assay: as above
[9] = test system: U2OS; assay: as above
[10] = test system: Vero E6; assay: as above
[11] = test system: Caco-2; assay: drug sensitivity score (DSS) for viability; higher = more toxic; extreme values may be limits of the assay
[12] = test system: Calu-3; assay: as above
[13] = test system: HepG2; assay: as above
[14] = test system: U2OS; assay: as above
[15] = test system: Vero E6; assay: as above

Row | Compound | cell viability ([1]; 1 nM) [%] | cell viability ([1]; 10 nM) [%] | cell viability ([1]; 100 nM) [%] | cell viability ([1]; 1000 nM) [%] | cell viability ([1]; 10000 nM) [%] | cell viability ([2]; 1 nM) [%] | cell viability ([2]; 10 nM) [%] | cell viability ([2]; 100 nM) [%] | cell viability ([2]; 1000 nM) [%] | cell viability ([2]; 10000 nM) [%] | cell viability ([3]; 1 nM) [%] | cell viability ([3]; 10 nM) [%] | cell viability ([3]; 100 nM) [%] | cell viability ([3]; 1000 nM) [%] | cell viability ([3]; 10000 nM) [%] | cell viability ([4]; 1 nM) [%] | cell viability ([4]; 10 nM) [%] | cell viability ([4]; 100 nM) [%] | cell viability ([4]; 1000 nM) [%] | cell viability ([4]; 10000 nM) [%] | cell viability ([5]; 1 nM) [%] | cell viability ([5]; 10 nM) [%] | cell viability ([5]; 100 nM) [%] | cell viability ([5]; 1000 nM) [%] | cell viability ([5]; 10000 nM) [%] | relative viability EC50 [6] [µM] | relative viability EC50 [7] [µM] | relative viability EC50 [8] [µM] | relative viability EC50 [9] [µM] | relative viability EC50 [10] [µM] | drug sensitivity score [11] | drug sensitivity score [12] | drug sensitivity score [13] | drug sensitivity score [14] | drug sensitivity score [15]
1 | CCCC[P+](CCCC)(CCCC)Cc1ccc(NC(=O)[C@H](Cc2ccc3ccccc3c2)N/C(=N/C2CCCCC2)NC2CCCCC2)cc1 | 90.8 | 100 | 87.9 | 102 | 81.4 | 94.7 | 91.2 | 97.5 | 97.4 | 86.2 | 95.5 | 107 | 117 | 97.3 | 88.5 | 98.7 | 99.7 | 96.5 | 96.6 | 88.9 | 102 | 97.7 | 107 | 100 | 90.7 | > 10 | > 10 | > 10 | > 10 | > 10 | 0.4 | 0 | 0.1 | 0 | 0
2 | CCCCCCCCN=c1ccn(CCCCCCCCCCn2ccc(=NCCCCCCCC)cc2)cc1 [octenidine] | 98.7 | 97.5 | 101 | 78 | 1 | 106 | 101 | 98.6 | 98.6 | 0.7 | 89.6 | 93.4 | 102 | 65.6 | 2.6 | 95.5 | 104 | 95.4 | 89.9 | 2.7 | 96.8 | 94.7 | 92.5 | 83.7 | 0.1 | 1.65 | 3.07 | 1.27 | 2.31 | 1.91 | 8.9 | 5.7 | 10.2 | 7 | 8.2
3 | CC(C(=O)O)c1ccc2c(c1)Cc1cccnc1O2 (stereo not given) [pranoprofen] | 88.3 | 86.7 | 89.5 | 95.3 | 102 | 97.5 | 92.9 | 97.1 | 100 | 108 | 95.8 | 103 | 94.1 | 104 | 111 | 104 | 99.1 | 95.2 | 104 | 106 | 96.2 | 96.5 | 98.4 | 100 | 105 | > 10 | > 10 | > 10 | > 10 | > 10 | 0 | 0 | 0 | 0 | 0
4 | NC(=O)c1ccccc1O [salicylamide] | 93.6 | 99 | 78.2 | 84.8 | 79.2 | 105 | 105 | 92 | 100 | 104 | 98.5 | 99.6 | 98.5 | 91.2 | 99.7 | 97.9 | 108 | 95.6 | 102 | 98.9 | 98 | 93.9 | 102 | 97.9 | 93 | > 10 | > 10 | > 10 | > 10 | > 10 | 5.7 | 0 | 0 | 0 | 0
5 | O=C(N[C@H]1CCN(C(=O)c2cc(C(F)(F)F)cc(C(F)(F)F)c2)[C@H](Cc2ccc(Cl)cc2)C1)c1ccnc2ccccc12 [AV-608] | 89.3 | 95 | 96.1 | 97.4 | 75.5 | 115 | 98.6 | 101 | 94.2 | 99.4 | 96.2 | 103 | 98.9 | 98.3 | 97.3 | 101 | 98.8 | 93.5 | 100 | 95.5 | 96 | 100 | 101 | 97.5 | 95.7 | > 10 | > 10 | > 10 | > 10 | > 10 | 1.3 | 0 | 0 | 0 | 0
6 | CO[C@@H]1[C@H](O)[C@@H](CO)O[C@H]1n1cnc2c(NC3CCCCC3)ncnc21 [SDZ-WAG-994] | 84.7 | 95.4 | 90 | 103 | 99.5 | 88.5 | 89.5 | 83.3 | 88.3 | 109 | 88 | 93.4 | 104 | 93 | 101 | 93.6 | 100 | 97 | 103 | 108 | 99.5 | 94.7 | 97.1 | 95.2 | 109 | > 10 | > 10 | > 10 | > 10 | > 10 | 0 | 0 | 0 | 0 | 0
7 | COc1cc2c(cc1OC)CN(CCc1ccc(NC(=O)c3cc(OC)c(OC)cc3NC(=O)c3cnc4ccccc4c3)cc1)CC2 [tariquidar] | 89.2 | 94.2 | 99.8 | 95.3 | 108 | 93.5 | 94.6 | 84 | 101 | 103 | 102 | 90.9 | 108 | 93.5 | 105 | 94.9 | 100 | 97.2 | 103 | 103 | 105 | 94.5 | 96.8 | 96.4 | 107 | > 10 | > 10 | > 10 | > 10 | > 10 | 0 | 0 | 0 | 0 | 0
